Laboratory results: patent publication US12533444B2, “Mitigation of peri-implantitis by design and stability of bifunctional peptides with antimicrobial properties” (priority 2019, dated 2026)

Columns and labels:
oral pathogens = details: against oral pathogens; cited from earlier work
[1] = Serum competition binding assay with BSA on titanium implant discs; details: presence of 0.01% BSA, 2 minutes at 37° C.
Source text: (§1) A custom MatLab script was developed to determine the percent surface coverage of fluorescently labeled bifunctional peptides on the implant disc surface. The color fluorescent images were read into MatLab using the imread function. The images were converted to black and white and the total number of black and white pixels quantitated. The number of white pixels corresponding to the fluorescently labeled peptides was divided by the total number of pixels to determine the percent surface coverage.
Prior to functionalization of sterile titanium implant discs, a solution of BSA and the bifunctional peptide was made in a sterile centrifuge tube. In a sterile 24 well plate, 100 μL of the BSA/bifunctional peptide solution was pipetted onto a titanium implant disc and incubated at 37° C. for 2 minutes. […]
The bifunctional peptide film could be applied to a new dental implant prior to implantation and subsequently during recall appointments for treatment to previously placed implants. […] Thus, the ability of the peptide film to functionalize the implant surface in the presence of serum proteins was determined by pre-mixing the peptide with varying concentrations of bovine serum albumin (BSA) followed by incubating the mixture on the titanium disc for 2 minutes at 37° C. […]

[2] = Peptide binding to titanium implant discs (percent surface coverage by fluorescence imaging); details: FITC-labeled peptide, up to 6× theoretical footprint concentration, two minutes at 37° C., washed
Experimental: Titanium implant disc functionalization with bifunctional peptides was accomplished by incubating 100 μL of a specified fold concentration of the theoretical “footprint” concentration onto clean, sterile discs for different time periods at 37° C. for 2 minutes. Following incubation, the discs were transferred to a sterile well in a 24-well plate containing 500 μL of DI H2O and washed multiple times to remove unbound peptide. The discs were transferred to a clean glass microscope slide for imaging using a fluorescent microscope. All experiments were repeated a minimum of three times and images were recorded at 10× magnification.
as §1, with “The number of white pixels corresponding to the fluorescently labeled peptides was divided by the total number of pixels to determine the percent surface coverage.” left out
The theoretical footprint concentration of each bifunctional peptide with a multiple of the binding concentration up to 6× was determined to result in near 100% surface coverage after incubation with a titanium implant disc for only two minutes at 37° C. […] The fluorescent images were then analyzed using a MATLAB script to determine the percentage of the implant disc covered by the bifunctional peptides. […]

S. mutans = experiment: Propidium iodide staining of dead S. mutans bacteria on functionalized implant discs; assay type: cell-based, Streptococcus mutans; details: discs functionalized 2 minutes at 37° C., S. mutans challenge 24 hours
Experimental: Streptococcus mutans bacteria (ATCC 700610) were cultured according to an ATCC protocol. Frozen stocks were streak plated on agar and incubated for 24 hours at 37° C. in atmosphere with 5% CO2. A single bacterial colony was used to inoculate 5 mL of Brain Heart Infusion (BHI) broth in a sterile 50 mL conical tube and incubated overnight in the same conditions. Following incubation, 1 mL of culture was added to 9 mL of fresh media and grown to mid-log phase with a final concentration of 10^5 CFU/mL.
Following the functionalization of titanium discs, they were transferred to a sterile well in a 24-well plate and 400 μL of S. mutans bacteria at a concentration of 10^3 CFU/mL was added to the wells containing the discs and incubated for 24 hours at 37° C. in atmosphere with 5% CO2. Following incubation, discs were imaged with a fluorescent microscope to visualize FTIC-labeled bifunctional peptides on the disc surface after bacterial challenge. The dead bacteria were stained with propidium iodide and imaged using a fluorescent microscope. Experiments were repeated in triplicate and images were recorded at 10× magnification.
The antimicrobial functional efficacy of TiBP-AMPA compared to TiBP-GL13K supported the design prediction. […] Representative fluorescent images and quantification of three replicate experiments are depicted in FIGS. 8A and 8B, respectively.

[3] = Peptide film coverage on implant discs after S. mutans challenge; details: S. mutans challenge for 24 hours, FITC-labeled peptide
Source text: as §1
Streptococcus mutans bacteria (ATCC 700610) were cultured according to an ATCC protocol. Frozen stocks were streak plated on agar and incubated for 24 hours at 37° C. in atmosphere with 5% CO2. […]
Following the functionalization of titanium discs, they were transferred to a sterile well in a 24-well plate and 400 μL of S. mutans bacteria at a concentration of 10^3 CFU/mL was added to the wells containing the discs and incubated for 24 hours at 37° C. in atmosphere with 5% CO2. […] Experiments were repeated in triplicate and images were recorded at 10× magnification.
The binding and antimicrobial domain activities were evaluated by challenging the bifunctional peptide film applied to titanium implant discs with S. mutans bacteria for 24 hours. […]

| Sequence | MIC (oral pathogens) | surface coverage in competition with BSA [1] [%] | surface coverage (initial binding) [2] [%] | dead bacteria coverage (PI staining) (S. mutans) [%] | surface coverage after bacterial challenge [3] [%] |
| --- | --- | --- | --- | --- | --- |
| GKIIKLKASLKLL [GL13K, cationic amphipathic antimicrobial peptide domain] | low | – | – | – | – |
| KWKLWKKIEKWGQGIGAVLKWLTTW [AMPA, cationic antimicrobial peptide domain] | low | – | – | – | – |
| RPRENRGRERGLGSGGGGKIIKLKASLKLL [TiBP-GL13K, comparative bifunctional peptide: TiBP, GSGGG spacer, GL13K antimicrobial domain] | – | 73 | 96 | 10 | 60 |
| RPRENRGRERGLGSGGGKWKLWKKIEKWGQGIGAVLKWLTTW [TiBP-AMPA] | – | 80 | 99 | 46 | 84 |
